Results taken from ChEMBL document CHEMBL1201862, “PubChem BioAssay data set” (2004).
Activity calls are given as the source filed them.

How the values were obtained:
[1] = biological target: Troponin, cardiac muscle (Homo sapiens, UniProt P19429+P45379+P63316); experiment: Fluorescence-based biochemical high throughput dose response assay for activators of the calcium sensitivity of cardiac Regulated Thin Filaments (RTF). [Related pubchem assays (depositor defined):AID493008, AID493018, AID504382, AID504383]; type: protein-complex assay
[2] = biological target: T1, Hexokinase HKDC1 (Homo sapiens, UniProt Q2TB90); experiment: activation of HKDC1 glucose phosphorylation – biochemical, W721R variant, dose response (AID 504730); type: functional
T1 sequence (Q2TB90 whole entry): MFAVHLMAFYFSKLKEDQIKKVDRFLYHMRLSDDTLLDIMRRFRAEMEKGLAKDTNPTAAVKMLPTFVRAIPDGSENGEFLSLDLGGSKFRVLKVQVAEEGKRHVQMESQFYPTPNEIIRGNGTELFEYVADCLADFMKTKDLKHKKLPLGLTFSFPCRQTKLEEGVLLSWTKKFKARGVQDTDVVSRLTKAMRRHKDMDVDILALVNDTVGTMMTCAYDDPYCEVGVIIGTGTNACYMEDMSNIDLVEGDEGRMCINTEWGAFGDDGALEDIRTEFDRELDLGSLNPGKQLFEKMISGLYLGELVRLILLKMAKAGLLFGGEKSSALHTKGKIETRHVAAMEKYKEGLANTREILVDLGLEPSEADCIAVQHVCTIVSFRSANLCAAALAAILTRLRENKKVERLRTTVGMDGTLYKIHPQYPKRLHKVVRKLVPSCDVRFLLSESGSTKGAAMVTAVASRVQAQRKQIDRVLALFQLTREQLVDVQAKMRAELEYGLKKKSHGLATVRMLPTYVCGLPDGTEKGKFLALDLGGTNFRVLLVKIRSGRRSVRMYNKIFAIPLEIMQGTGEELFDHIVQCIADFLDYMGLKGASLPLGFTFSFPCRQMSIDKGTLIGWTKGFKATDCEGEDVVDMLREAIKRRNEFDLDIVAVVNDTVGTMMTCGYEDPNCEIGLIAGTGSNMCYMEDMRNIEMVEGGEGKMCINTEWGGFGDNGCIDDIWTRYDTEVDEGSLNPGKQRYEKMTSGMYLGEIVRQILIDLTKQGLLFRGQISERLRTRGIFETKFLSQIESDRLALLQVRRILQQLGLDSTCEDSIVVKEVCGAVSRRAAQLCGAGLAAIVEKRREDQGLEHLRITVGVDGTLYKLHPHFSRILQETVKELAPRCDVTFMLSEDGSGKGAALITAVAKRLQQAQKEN

[3] = test system: INS1; experiment: INS-1E survival protection against cytokine death – cell-based, luminescence, retest, dose response (AID 449756); type: functional; settings: Rattus norvegicus;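 note: cell death triggered by IL-1 beta plus TNF-alpha plus IFN-gamma mixture; protective hits raise ATP signal compared with cytokine alone wells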
[4] = biological target: T2, Hexokinase-1 (Homo sapiens, UniProt P19367); experiment: HK1 enzyme activation by HKDC1 hits – biochemical, selectivity assay for HKDC1 activator project, dose response (AID 504762); type: functional
T2 sequence (P19367 whole entry): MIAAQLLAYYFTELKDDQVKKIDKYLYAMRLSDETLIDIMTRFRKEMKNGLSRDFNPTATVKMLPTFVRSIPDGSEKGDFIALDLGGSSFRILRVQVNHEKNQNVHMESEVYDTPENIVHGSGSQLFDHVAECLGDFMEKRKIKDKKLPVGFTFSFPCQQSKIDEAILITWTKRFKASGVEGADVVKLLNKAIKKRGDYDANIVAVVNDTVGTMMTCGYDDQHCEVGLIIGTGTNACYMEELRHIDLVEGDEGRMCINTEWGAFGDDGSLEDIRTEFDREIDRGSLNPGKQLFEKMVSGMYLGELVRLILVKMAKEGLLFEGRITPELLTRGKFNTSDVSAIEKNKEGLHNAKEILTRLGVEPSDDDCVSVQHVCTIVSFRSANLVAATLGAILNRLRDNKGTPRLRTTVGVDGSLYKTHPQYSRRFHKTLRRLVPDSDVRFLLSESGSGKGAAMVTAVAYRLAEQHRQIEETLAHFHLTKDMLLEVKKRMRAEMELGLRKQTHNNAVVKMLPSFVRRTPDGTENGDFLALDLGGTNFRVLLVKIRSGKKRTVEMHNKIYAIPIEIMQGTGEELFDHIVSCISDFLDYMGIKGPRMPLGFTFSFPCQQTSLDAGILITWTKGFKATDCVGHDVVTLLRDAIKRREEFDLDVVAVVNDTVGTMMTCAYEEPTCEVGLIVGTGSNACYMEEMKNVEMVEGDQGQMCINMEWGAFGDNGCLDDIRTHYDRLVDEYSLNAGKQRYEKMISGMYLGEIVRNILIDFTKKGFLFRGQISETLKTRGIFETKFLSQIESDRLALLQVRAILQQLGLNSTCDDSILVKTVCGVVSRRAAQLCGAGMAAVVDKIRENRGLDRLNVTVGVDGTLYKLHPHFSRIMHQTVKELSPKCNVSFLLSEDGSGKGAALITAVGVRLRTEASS

[5] = biological target: DNA dC->dU-editing enzyme APOBEC-3G (Homo sapiens, UniProt Q9HC16); type: functional;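 note: Dose-response counterscreen measuring inhibition of APOBEC3G DNA deaminase activity, run while confirming APOBEC3A inhibitors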
Sequence of DNA dC->dU-editing enzyme APOBEC-3G (Q9HC16 whole entry): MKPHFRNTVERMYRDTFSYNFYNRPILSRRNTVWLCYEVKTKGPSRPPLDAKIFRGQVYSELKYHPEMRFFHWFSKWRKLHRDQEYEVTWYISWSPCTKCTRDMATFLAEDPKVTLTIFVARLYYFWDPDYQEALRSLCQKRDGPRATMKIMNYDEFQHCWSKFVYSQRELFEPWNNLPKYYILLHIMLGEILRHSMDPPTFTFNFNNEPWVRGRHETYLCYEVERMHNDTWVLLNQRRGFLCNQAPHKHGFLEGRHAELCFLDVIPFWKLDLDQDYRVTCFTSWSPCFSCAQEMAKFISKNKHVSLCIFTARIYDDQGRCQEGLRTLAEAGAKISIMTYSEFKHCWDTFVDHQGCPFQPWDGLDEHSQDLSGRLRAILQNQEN

[6] = biological target: DNA dC->dU-editing enzyme APOBEC-3A (Homo sapiens, UniProt P31941); experiment: Dose Response confirmation of small molecule APOBEC3A DNA Deaminase Inhibitors via a fluorescence-based single-stranded DNA deaminase assay. [Related pubchem assays (depositor defined):AID493011, AID493024]; type: functional
Sequence of DNA dC->dU-editing enzyme APOBEC-3A (P31941 whole entry): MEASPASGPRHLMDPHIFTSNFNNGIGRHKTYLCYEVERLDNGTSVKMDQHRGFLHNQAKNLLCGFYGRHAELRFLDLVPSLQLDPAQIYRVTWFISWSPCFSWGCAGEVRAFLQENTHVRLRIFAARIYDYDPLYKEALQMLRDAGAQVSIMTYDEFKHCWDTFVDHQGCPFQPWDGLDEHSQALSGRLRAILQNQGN

SMILES: COc1cc(OC)c(C(=O)OC(C)C(=O)Nc2cccc(C(F)(F)F)c2)cc1OC (stereo unspecified)
- EC50 [1]: > 71.5 µM (inactive)

SMILES: Clc1cccc(NC2=NN=C(c3ccc4c(c3)OCCO4)CS2)c1
- EC50 [2]: 23.2 µM (inactive)
- AC50 [3]: 2.25 µM (active)
- EC50 [4]: 41.3 µM (inactive)

SMILES: CCOCc1cnc(C)nc1NCC(=O)c1c(C)[nH]c2ccc(OC)cc12
- IC50 [5]: 5.53 µM (active)
- IC50 [6]: 2.59 µM (active)
